Results on 1 molecule are retold here after publication PMC11475570, “Impact of Optimized Ku–DNA Binding Inhibitors on the Cellular and In Vivo DNA Damage Response” (Cancers, 2024).

One data set relates to H460 NSCLC cells. The data set is described as follows: Cellular uptake by HPLC. Format: in vitro ADME, Human. Particulars: H460, 10 µM. How it is done: Cellular uptake was evaluated in two NSCLC cell lines, H460 and A549. Cells were seeded into 6-well plates at a density of 1 × 10^6 cells per well and cultured as monolayers at 37 °C and 5% CO2 for 18–24 h. Ku-DBis were added to the media at a concentration of 10 µM and incubation continued for the times indicated. Media were removed, cells were washed 3 times with PBS, 1 mL of methanol was added to each well, and cells were agitated overnight at 4 °C. The methanol was collected, and wells were washed with an additional 1 mL of methanol that was then pooled with the original. The methanol extracts were then dried under vacuum, resuspended in methanol, and analyzed by HPLC using a 250 × 4.6 and 5 μm C-18 reverse phase column with 1% TFA mobile phase in acetonitrile (ACN) gradient elution. Absorption was monitored at 425 nm, HPLC peaks were quantified using a standard curve, and picomoles of compound per million cells was calculated.

The test system of data set [1] is A549 NSCLC adenocarcinoma xenograft. Briefly: A549 NSCLC xenograft (CDX), intratumoral Ku-DBi with or without IR. It counts as in vivo, mice. Particulars: for Ki-67 expression in tumors: IHC and Western blot. How it is done:
The in vivo studies were conducted as approved by the Institutional Animal Care and Use Committee at Indiana University School of Medicine. A549 cells (~2.5 × 10^6) in 50% Matrigel were injected into the hind flanks of 8–10-week-old NOD.Cg-Rag1tm1Mom Il2rgtm1Wjl/SzJ (NRG) mice (IVT, In vivo Therapeutics Core, Indiana University Melvin and Bren Simon Comprehensive Cancer Center, Indianapolis, IN, USA) as previously described. Tumor volumes were monitored by electronic caliper measurement. Mice were randomized into groups of 3 or 4 using a random group generator; 6 different scenarios were generated, and the scenario with the most similar tumor volume averages across groups was selected. Treatments were initiated when tumors were ~600 mm^3. Tumors were administered Ku-DBi (30 µL of 10 mM) or vehicle (30 µL of DMSO) via intratumoral injection 4 h before 5 Gy irradiation of the tumor with a single dose of X-rays (250 kVp; dose rate = 1.4 Gy/min; 2 cm × 2 cm field) under isoflurane anesthesia. […] Mice were sacrificed 2 h post-irradiation (or 2 h post-sham irradiation); tumors were excised and processed for immunohistochemistry (IHC) assays. Cell-free protein extracts were prepared to assess DNA-PKcs autophosphorylation and γ-H2AX levels.
Protein lysates, ranging from 20 to 30 μg, were separated by SDS-PAGE (4–20% Mini Protean TGX Gels, BioRad, Hercules, CA, USA) and transferred onto PVDF membranes (Bio-Rad) through wet transfer. Membranes blocked in 0.5% Tween and 3% BSA in 1× TBS for 1 h were probed with the following primary antibodies: Phospho-DNA PKcs (S2056) (Cat: ab124918, Abcam, Cambridge, UK), total DNA-PKcs (Cat: sc-5282, Santa Cruz Biotechnology, Dallas, TX, USA), and γ-H2AX pS139 (Cat: 613401, BioLegend, San Diego, CA, USA). […] All primary antibodies were prepared with 3% BSA and 0.02% NaN3 in TBS with 0.5% Tween. Goat anti-rabbit or anti-mouse IgG (H + L)–HRP conjugates (Cat: 170-6515 or 170-6516, Bio-Rad) were used as secondary antibodies to detect these proteins. Imaging, densitometric analysis, and quantification of protein expression were performed as previously described.
Excised tumors were fixed in 4% paraformaldehyde (PFA) solution in PBS for 24 h at 4 °C. After fixation, tumors were transferred to 70% ethanol and paraffin embedding. Sectioning was completed by the Indiana University Histology Core at the IU School of Medicine. Representative 3 μm-thick sections for each treatment were stained with H and E (HE; Harris hematoxylin, regressive method) for histologic examination or were processed for Ki-67 IHC immunodetection. Briefly, paraffin-embedded sections were deparaffinized in a xylene series (4 × 3 min) and rehydrated in a series of graded alcohol dilutions (100%, 95%, 70%, and ddH2O, 2 × 2 min each). […]

As for `COc1ccc(-c2ccc(/C=C3\C(=O)N(c4cccc(C(=O)O)c4)c4ccccc43)o2)cc1C(=O)Nc1cccc(OC(F)(F)F)c1` [GL-3392], the “Uptake time course, initial rate and steady-state uptake” value in the data set with H460 NSCLC cells is recorded as “higher cellular levels than 3395”. In addition, the “Cellular uptake, fold more efficient than methoxy-derivatives 3395 and 3649” value with H460 NSCLC cells (media with 10% FBS) was ~ 3 fold. For the same molecule, the “Ki-67 expression in tumors” value is given as “statistically significant decrease in the Ki-67 expression” in data set [1] (3392 intratumoral plus 5 Gy IR) and “limited effects” in data set [1] (single-agent 3392, intratumoral). For the same molecule, the γ-H2AX in tumors result in data set [1] (3392 intratumoral plus 5 Gy IR, Western blot) is listed as “further exacerbated in the combination-treated tumors”. The “IR-induced DNA-PKcs autophosphorylation in tumors” value in data set [1] (intratumoral 30 µL of 10 mM, 4 h before 5 Gy, tumors taken 2 h post-irradiation, Western blot) is given as “effectively reversed the IR-induced DNA-PKcs autophosphorylation”.
